According to patent publication US10688082B2, “Aminopyrazine compounds with A2A antagonist properties” (Merck Sharp & Dohme Corp., priority 2015, dated 2020):

Biological target: T1, human A2a receptor (Homo sapiens, UniProt P29274)
T1 construct: purchased Perkin-Elmer RBHA2AM400UA; host or cells: HEK293 cells (membranes)
Experiment: Competition binding assay using Scintillation Proximity technology (A2a activity)
Details: membranes from HEK293 cells expressing the human A2a receptor; 0.5 nM tritiated ligand; Cheng-Prusoff
Description: Binding affinities of compounds of the invention for the human A2a receptor were determined in a competition binding assay using Scintillation Proximity technology. Thus, […] from HEK293 cells expressing the human A2a receptor were incubated with a compound of the invention at concentrations ranging from 3000 nM to 0.15 nM in a reaction mixture containing also 0.5 nM of a tritiated form of 5-amino-7-[2-phenethyl]-2-(furan-2-yl)-7H-pyrazolo[4,3-e][1,2,4]triazolo[1,5-c]pyrimidine (the tritiated compound) and 100 μg of wheat germ agglutin-coated yttrium silicate SPA beads for one hour at room temperature with agitation. The beads were then allowed to settle to the bottom of the wells for 1 hr, after which the membrane-associated radioactivity was determined by scintillation counting in a TopCount microplate reader. Ki values were determined using the Cheng-Prusoff equation.
HEK293 cells expressing the human, rat, dog or monkey adenosine 2a receptor (Purchased from Perkin-Elmer # RBHA2AM400UA).
The Tritiated compound was prepared according to published methods.
Wheat germ agglutinin-coated yttrium silicate SPA beads (GE Healthcare # RPNQ0023). Dilute to 25 mg/ml in assay buffer.
Assay Buffer was prepared using Dulbecco's calcium and magnesium free phosphate buffered saline+10 mM MgCl2
Adenosine deaminase from calf intestine, 10 mg/2 ml (Roche #10 102 105 001).
A2a antagonist standard (9-chloro-1-(2-furanyl)-[1,2,4]triazolo1,5-c]quinazolin-5-amine from Tocris Bioscience)
Make eight 1:3 serial dilutions in 100% DMSO from a 3 mM compound stock
Transfer 50 nl of compound into a 384-well OptiPlate (Perkin Elmer).
Typically, final concentrations of compound used in the assay ranged from 3000 nM to 0.152 nM.
Dilute a solution of the Tritiated compound to 1.25 nM in assay buffer. This is a 2.5× solution. The final concentration in the assay is 0.5 nM. Calculate the concentration by counting two 5 μl aliquots.
Use 0.25 ug of membrane/well. Dilute membranes to 9.7 μg/ml in assay buffer. Treat with 20 ug/ml adenosine deaminase (ADA) for 15 minutes at room temperature to degrade endogenous adenosine.
Use 100 μg/well wheat germ agglutinin-coated yttrium silicate SPA beads.
Mix ADA-treated membranes and SPA beads together for 30 min prior to assay.
To the Perkin-Elmer Optiplate-384 containing the compound titration add 20 μl of 2.5× solution of the Tritiated compound and 30 μl of the membrane-bead mixture. Incubate for one hour at room temperature with agitation.
Include total binding (assay buffer+1% DMSO) and non-specific binding (CGS15943, 1 μM) wells.
Allow the beads to settle for one hour.
A curve fitting program (i.e., Prism, Activity Base, Chemcart) is used to determine the EC50. The Ki value is calculated using the Cheng-Prusoff equation. K i=EC50/(1+(radioligand concentration/Kd))

T1 sequence (P29274 whole entry): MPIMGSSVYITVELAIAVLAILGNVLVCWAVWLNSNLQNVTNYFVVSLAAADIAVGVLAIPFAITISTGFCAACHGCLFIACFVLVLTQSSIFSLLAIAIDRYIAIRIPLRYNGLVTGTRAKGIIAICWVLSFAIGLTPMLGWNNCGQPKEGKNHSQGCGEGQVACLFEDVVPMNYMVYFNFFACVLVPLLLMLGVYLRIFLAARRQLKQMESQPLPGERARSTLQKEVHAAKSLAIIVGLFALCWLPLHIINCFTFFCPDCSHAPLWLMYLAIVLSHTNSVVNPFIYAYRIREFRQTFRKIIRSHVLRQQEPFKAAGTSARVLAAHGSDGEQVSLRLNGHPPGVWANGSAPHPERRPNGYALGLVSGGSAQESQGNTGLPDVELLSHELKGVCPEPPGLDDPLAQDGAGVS

Ki [nM]	SMILES
51	Nc1nc2ccccc2c2cc(Cc3ccccc3CN3CCOCC3)nn12 [Ex-97, 2-(2-(morpholinomethyl)-bcnzyl)pyrazolo[1,5-c]-quinazolin-5-amine]
2	COc1cccc2c1nc(N)n1nc(C(=O)NCc3ccc(F)cc3F)cc21 [Ex-77, 5-amino-N-(2,4-difluorobenzyl)-7-methoxypyrazolo[1,5-c]quinazoline-2-carboxamide]
4	COc1cccc2c1nc(N)n1nc(C(=O)N(C)Cc3ccccc3)cc21 [Ex-81, 5-amino-N-benzyl-7-methoxy-N-methylpyrazolo[1,5-c]quinazoline-2-carboxamide]
7	COc1cccc2c1nc(N)n1nc(Cc3ccccc3-n3cccn3)cc21 [Ex-63, 2-(2-(1H-pyrazol-1-yl)benzyl)-7-methoxypyrazolo[1,5-c]quinazolin-5-amine]
20	COc1cccc2c1nc(N)n1nc(C(=O)N3CCN(C(=O)OC(C)(C)C)CC3)cc21 [Ex-75, tert-butyl 4-(5-amino-7-methoxypyrazolo[1,5-c]quinazoline-2-carbonyl)piperazine-1-carboxylate]
41	Nc1nc2ccc(F)cc2c2cc(C(=O)N3CCN(c4ccccn4)CC3)nn12 [Ex-115, (5-amino-9-fluoropyrazolo[1,5-c]-quinazolin-2-yl)(4-(pyridin-2-yl)-piperazin-1-yl)methanone]
300	COc1cccc2c1nc(N)n1nc(C(=O)N3CCNCC3)cc21 [Ex-76, (5-amino-7-methoxypyrazolo[1,5-c]quinazolin-2-yl)(piperazin-1-yl)methanone]
26	COc1cccc2c1nc(N)n1nc(Cc3cccc(N4CCOCC4)c3)cc21 [Ex-23, 7-methoxy-2-(3-morpholinobenzyl)pyrazolo[1,5-c]quinazolin-5-amine]
22	COc1cccc2c1nc(N)n1nc(Cc3cccc4ccc(C)nc34)cc21 [Ex-60, 7-methoxy-2-((2-methylquinolin-8-yl)methyl)pyrazolo[1,5-c]quinazolin-5-amine]
80	COc1cccc2c1nc(N)n1nc(Cc3cccc(Cl)c3Cl)cc21 [Ex-43, 2-(2,3-dichlorobenzyl)-7-methoxypyrazolo[1,5-c]quinazolin-5-amine]
39	COc1cccc2c1nc(N)n1nc(-c3nnc(N4CCOCC4)o3)cc21 [Ex-101, 7-methoxy-2-(5-morpholino-1,3,4-oxadiazol-2-yl)pyrazolo[1,5-c]quinazolin-5-amine]
136	COc1cccc2c1nc(N)n1nc(Cc3ccc(N4CCCCC4)cc3)cc21 [Ex-8, 7-methoxy-2-(4-(piperidin-1-yl)benzyl)pyrazolo[1,5-c]quinazolin-5-amine]
18	COc1cccc2c1nc(N)n1nc(Cc3ccccc3CN3CCC(C)(O)CC3)cc21 [Ex-27, 1-(2-((5-amino-7-methoxypyrazolo[1,5-c]quinazolin-2-yl)methyl)benzyl)-4-methylpiperidin-4-ol]
333	COc1cccc2c1nc(N)n1nc(Cc3ccc(N4CCNCC4)cc3)cc21 [Ex-25, 7-methoxy-2-(4-(piperazin-1-yl)benzyl)pyrazolo[1,5-c]quinazolin-5-amine]
49	COc1cccc2c1nc(N)n1nc(Cc3cccc4c3CNC4=O)cc21 [Ex-56, 4-((5-amino-7-methoxypyrazolo[1,5-c]quinazolin-2-yl)methyl)isoindolin-1-one]
6	Nc1nc2c(F)cccc2c2cc(Cc3cccc4cccnc34)nn12 [Ex-109, 7-fluoro-2-(quinolin-8-ylmethyl)pyrazolo[1,5-c]quinazolin-5-amine]
2	COc1cccc2c1nc(N)n1nc(Cc3ccccc3C#N)cc21 [Ex-50, 2-((5-amino-7-methoxypyrazolo[1,5-c]quinazolin-2-yl)methyl)benzonitrile]
20	COc1cccc2c1nc(N)n1nc(-c3cnco3)cc21 [Ex-2, 7-methoxy-2-(oxazol-5-yl)pyrazolo[1,5-c]quinazolin-5-amine]
131	Nc1nc2c(F)cccc2c2cc(-c3nnc(-c4cccc5cccnc45)o3)nn12 [Ex-112, 7-fluoro-2-(5-(quinolin-8-yl)-1,3,4-oxadiazol-2-yl)pyrazolo[1,5-c]quinazolin-5-amine]

Ki [nM]	SMILES
14	COc1cccc2c1nc(N)n1nc(CN3Cc4cccnc4C3)cc21 [Ex-69, 2-((5,7-dihydro-6H-pyrrolo[3,4-b]pyridin-6-yl)methyl)-7-methoxypyrazolo[1,5-c]quinazolin-5-amine]
473	COc1cccc2c1nc(N)n1nc(CN3CC(O)C3)cc21 [Ex-67, 1-((5-amino-7-methoxypyrazolo[1,5-c]quinazolin-2-yl)methyl)azetidin-3-ol]
2	COc1cccc2c1nc(N)n1nc(Cc3cc(F)ccc3F)cc21 [Ex-64, 2-(2,5-difluorobenzyl)-7-methoxypyrazolo[1,5-c]quinazolin-5-amine]
373	COc1cccc2c1nc(N)n1nc(Cc3csc(N4CCN(C)CC4)n3)cc21 [Ex-13, 7-methoxy-2-((2-(4-methylpiperazin-1-yl)thiazol-4-yl)methyl)pyrazolo[1,5-c]quinazolin-5-amine]
5	COc1cccc2c1nc(N)n1nc(C(=O)N3CCCC3)cc21 [Ex-74, (5-amino-7-methoxypyrazolo[1,5-c]quinazolin-2-yl)(pyrrolidin-1-yl)methanone]
10	COc1cccc2c1nc(N)n1nc(Cc3ccccc3OC(F)F)cc21 [Ex-55, 2-(2-(difluoromethoxy)benzyl)-7-methoxypyrazolo[1,5-c]quinazolin-5-amine]
123	Nc1nc2ccc(F)cc2c2cc(Cc3cccnc3N3CCOCC3)nn12 [Ex-107, 9-fluoro-2-((2-morpholinopyridin-3-yl)methyl)pyrazolo[1,5-c]quinazolin-5-amine]
32	COc1ccc(Cc2cc3c4cccc(OC)c4nc(N)n3n2)cc1 [Ex-33, 7-methoxy-2-(4-methoxybenzyl)pyrazolo[1,5-c]quinazolin-5-amine]
67	Nc1nc2ccc(F)cc2c2cc(Cc3ccccc3)nn12 [Ex-104, 2-benzyl-9-fluoropyrazolo[1,5-c]quinazolin-5-amine]
14	Nc1nc2c(F)cccc2c2cc(Cc3ccccc3)nn12 [Ex-108, 2-benzyl-7-fluoropyrazolo[1,5-c]quinazolin-5-amine]
67	COc1cccc2c1nc(N)n1nc(Cc3ccccc3N3CCNCC3)cc21 [Ex-19, 7-methoxy-2-(2-(piperazin-1-yl)benzyl)pyrazolo[1,5-c]quinazolin-5-amine]
23	COc1cccc2c1nc(N)n1nc(-c3nnc(NCc4ccc(F)cc4F)o3)cc21 [Ex-103, 5-(5-amino-7-methoxypyrazolo[1,5-c]quinazolin-2-yl)-N-(2,4-difluorobenzyl)-1,3,4-oxadiazol-2-amine]
50	COc1cccc2c1nc(N)n1nc(C(=O)N3CCC4(CCN(Cc5ccccc5)C4)C3)cc21 (centres unmarked) [Ex-90, (5-amino-7-methoxypyrazolo[1,5-c]quinazolin-2-yl)(7-benzyl-2,7-diazaspiro[4.4]nonan-2-yl)methanone]
10	COc1cccc2c1nc(N)n1nc(Cc3ccccc3Cl)cc21 [Ex-45, 2-(2-chlorobenzyl)-7-methoxypyrazolo[1,5-c]quinazolin-5-amine]
120	CCN1CCN(c2ccccc2Cc2cc3c4cccc(OC)c4nc(N)n3n2)CC1 [Ex-26, 2-(2-(4-ethylpiperazin-1-yl)benzyl)-7-methoxypyrazolo[1,5-c]quinazolin-5-amine]
5	COc1cccc2c1nc(N)n1nc(Cc3cc(F)cc(F)c3)cc21 [Ex-65, 2-(3,5-difluorobenzyl)-7-methoxypyrazolo[1,5-c]quinazolin-5-amine]
2	COc1cccc2c1nc(N)n1nc(Cc3ccnc4ccccc34)cc21 [Ex-14, 7-methoxy-2-(quinolin-4-ylmethyl)pyrazolo[1,5-c]quinazolin-5-amine]
139	COc1cccc2c1nc(N)n1nc(Cc3cccc(-n4nc(C)cc4C)c3)cc21 [Ex-54, 2-(3-(3,5-dimethyl-1H-pyrazol-1-yl)benzyl)-7-methoxypyrazolo[1,5-c]quinazolin-5-amine]
51	COc1cccc2c1nc(N)n1nc(Cc3ccccc3CN3CCOCC3)cc21 [Ex-21, 7-methoxy-2-(2-(morpholinomethyl)benzyl)pyrazolo[1,5-c]quinazolin-5-amine]
